The values that follow come from patent US5990146A, “Benzimidazoles for inhibiting protein tyrosine kinase mediated cellular proliferation” (Warner-Lambert Company, priority 1998, dated 1999).

Where a name gives a salt, the structure may show the parent alone. Bounds are passed on as bounds.

The term IC50 denotes the concentration needed to halve the response being measured. Read a high IC50 as weaker potency in that assay.

Common to all, as to assay type: biochemical
Experiment [1] has as its target T1, PDGF receptor tyrosine kinase (mouse PDGF-β) (Mus musculus, UniProt P05622).
T1 construct: PCR primers are designed to amplify a fragment of DNA that codes for the intracellular tyrosine kinase domain; made in house; host or cells: Sf9 insect cells (baculovirus), cell lysate
The experiment is described as follows: PDGFr tyrosine kinase assay (poly glutamate-tyrosine phosphorylation). The note with it: Table 1; 10 minutes at 25° C. As for the experimental part: Platelet Derived Growth Factor Receptor (PDGFr) and Fibroblast Growth Factor Receptor (FGFr)
Full length cDNAs for the mouse PDGF-β and human FGF-1 (flg) receptor tyrosine kinases were obtained from J. Escobedo and are prepared as described in J. Biol. Chem., 262: 1482-1487 (1991). PCR primers are designed to amplify a fragment of DNA that codes for the intracellular tyrosine kinase domain. The fragment is melded into a baculovirus vector, cotransfected with AcMNPV DNA, and the recombinant virus isolated. SF9 insect cells are infected with the virus to overexpress the protein, and the cell lysate is used for the assay.
The assay is performed in 96-well plates (100 μL/incubation/well), and conditions are optimized to measure the incorporation of ^32 p from [γ^32 P]-ATP into a glutamate-tyrosine copolymer substrate. Briefly, to each well is added 82.5 μL of incubation buffer containing 25 mM Hepes (pH 7.0), 150 mM NaCl, 0.1% Triton X-100, 0.2 mM PMSF, 0.2 mM sodium vanadate, 10 mM manganese chloride, and 750 μg/mL of poly (4:1) glutamate-tyrosine followed by 2.5 μL of inhibitor and 5 μL of enzyme lysate (7.5 μg/μL FGFR-TK or 6.0 μg/μL PDGFR-TK) to initiate the reaction. Following a 10 minute incubation at 25° C., 10 μL of [γ^32 P]-ATP (0.4 μCi plus 50 μM ATP) is added to each well and samples are incubated for an additional 10 minutes at 25° C. The reaction is terminated by the addition of 100 μL of 30% trichloroacetic acid (TCA) containing 20 mM sodium pyrophosphate and precipitation of material onto glass fiber filter mats (Wallac). Filters are washed 3 times with 15% TCA containing 100 mM sodium pyrophosphate and the radioactivity retained on the filters counted in a Wallac 1250 Betaplate reader. Nonspecific activity is defined as radioactivity retained on the filters following incubation of samples with buffer alone (no enzyme). Specific enzymatic activity is defined as total activity (enzyme plus buffer) minus nonspecific activity.

Another experiment deals with T2, insulin receptor (INSr) (Homo sapiens, UniProt P06213).
T2 construct: An assay using the intracellular kinase domains of insulin receptor (INSr) is performed
T2 sequence (P06213 1023-1298 limits assumed, species assumed): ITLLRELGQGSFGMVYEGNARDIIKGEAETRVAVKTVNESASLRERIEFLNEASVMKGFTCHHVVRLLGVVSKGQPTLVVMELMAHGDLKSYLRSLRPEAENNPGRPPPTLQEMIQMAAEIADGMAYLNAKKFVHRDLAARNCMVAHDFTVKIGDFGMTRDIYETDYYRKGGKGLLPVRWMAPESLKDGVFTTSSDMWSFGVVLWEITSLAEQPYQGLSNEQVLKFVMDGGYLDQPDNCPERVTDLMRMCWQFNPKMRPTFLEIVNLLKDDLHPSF
Description: Insulin receptor kinase assay. The note with it: Table 1; as for EGF receptor with 10 mM manganese chloride.

Experiment [2] addresses T3, FGF receptor tyrosine kinase (human FGF-1 (flg)) (Homo sapiens, UniProt P11362).
T3 construct: PCR primers are designed to amplify a fragment of DNA that codes for the intracellular tyrosine kinase domain; made in house; host or cells: Sf9 insect cells (baculovirus), cell lysate
Description: FGFr tyrosine kinase assay (poly glutamate-tyrosine phosphorylation). To be noted: Table 1; 10 minutes at 25° C. The protocol:
Platelet Derived Growth Factor Receptor (PDGFr) and Fibroblast Growth Factor Receptor (FGFr) Full length cDNAs for the mouse PDGF-β and human FGF-1 (flg) receptor tyrosine kinases were obtained from J. Escobedo and are prepared as described in J. Biol. Chem., 262: 1482-1487 (1991). PCR primers are designed to amplify a fragment of DNA that codes for the intracellular tyrosine kinase domain. The fragment is […] into a baculovirus vector, cotransfected with AcMNPV DNA, and the recombinant virus isolated. SF9 insect cells are infected with the virus to overexpress the protein, and the cell lysate is used for the […] and FGFr The assay is performed in 96-well plates (100 μL/incubation/well), and conditions are optimized to measure the incorporation of ^32 p from [γ^32 P]-ATP into a glutamate-tyrosine copolymer substrate. […] The reaction is terminated by the addition of 100 μL of 30% trichloroacetic acid (TCA) containing 20 mM sodium pyrophosphate and precipitation of material onto glass fiber filter mats (Wallac). Filters are washed 3 times with 15% TCA containing 100 mM sodium pyrophosphate and the radioactivity retained on the filters counted in a Wallac 1250 Betaplate reader. Nonspecific activity is defined as radioactivity retained on the filters following incubation of samples with buffer alone (no enzyme). Specific enzymatic activity is defined as total activity (enzyme plus buffer) minus nonspecific activity.

The target of the next experiment is T4, c-Src (Homo sapiens, UniProt P12931).
T4 construct: made in house; host or cells: baculovirus infected insect cells
T4 sequence (P12931 whole entry, species assumed): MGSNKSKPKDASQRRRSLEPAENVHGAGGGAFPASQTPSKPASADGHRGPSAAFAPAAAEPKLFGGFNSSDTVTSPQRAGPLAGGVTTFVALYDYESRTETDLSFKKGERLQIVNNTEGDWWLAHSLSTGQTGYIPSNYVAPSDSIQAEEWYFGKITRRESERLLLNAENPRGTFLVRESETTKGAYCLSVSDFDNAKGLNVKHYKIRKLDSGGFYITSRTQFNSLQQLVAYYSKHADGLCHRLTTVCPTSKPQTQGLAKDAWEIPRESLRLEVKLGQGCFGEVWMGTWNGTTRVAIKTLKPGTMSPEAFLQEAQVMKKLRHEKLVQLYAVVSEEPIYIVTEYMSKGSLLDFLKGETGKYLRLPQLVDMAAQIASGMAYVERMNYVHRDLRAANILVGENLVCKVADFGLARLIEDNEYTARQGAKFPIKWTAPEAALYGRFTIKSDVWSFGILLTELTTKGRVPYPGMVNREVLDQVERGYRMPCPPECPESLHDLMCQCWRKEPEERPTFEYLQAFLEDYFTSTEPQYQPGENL
Description: c-Src kinase assay. The note with it: Table 1; 5 μM ATP, room temperature, 10 minutes. As for the experimental part: c-Src kinase is purified from baculovirus infected insect cell lysates using an antipeptide monoclonal antibody directed against the N-terminal 2-17 amino acids as described previously by Fry, et al, Anticancer Drug Design. 9: 331-351 (1994). […] At the end of the lysate incubation, the beads are rinsed 3 times in lysis buffer, resuspended in lysis buffer containing 10% glycerol, and frozen. These latex beads are thawed, rinsed 3 times in assay buffer which is comprised of 40 mM tris pH 7.5, 5 mM magnesium chloride, and suspended in the same buffer. […] The reaction is started at room temperature by addition of the ATP and quenched 10 minutes later by the addition of 125 μL of 30% TCA, 0.1 M sodium pyrophosphate for 15 minutes on ice. The plate is then filtered and the wells washed with two 250-μL aliquots of 15% TCA, 0.1 M pyrophosphate. The filters are punched, counted in a liquid scintillation counter, and the data examined for inhibitory activity in comparison to a known inhibitor such as erbstatin. The method is described more fully in J. Med. Chem., 37: 598-609 (1994).

T1 sequence (P05622 599-961 limits assumed): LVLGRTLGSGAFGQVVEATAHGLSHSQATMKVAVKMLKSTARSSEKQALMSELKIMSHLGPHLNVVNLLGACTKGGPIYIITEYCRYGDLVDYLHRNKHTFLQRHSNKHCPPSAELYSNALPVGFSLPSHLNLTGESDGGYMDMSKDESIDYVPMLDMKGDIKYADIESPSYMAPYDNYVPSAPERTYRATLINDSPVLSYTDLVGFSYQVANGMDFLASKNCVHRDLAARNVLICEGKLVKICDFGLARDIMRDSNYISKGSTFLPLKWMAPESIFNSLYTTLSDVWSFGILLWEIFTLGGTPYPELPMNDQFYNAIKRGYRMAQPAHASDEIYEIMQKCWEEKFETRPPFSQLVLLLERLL
T3 sequence (P11362 478-767 limits assumed): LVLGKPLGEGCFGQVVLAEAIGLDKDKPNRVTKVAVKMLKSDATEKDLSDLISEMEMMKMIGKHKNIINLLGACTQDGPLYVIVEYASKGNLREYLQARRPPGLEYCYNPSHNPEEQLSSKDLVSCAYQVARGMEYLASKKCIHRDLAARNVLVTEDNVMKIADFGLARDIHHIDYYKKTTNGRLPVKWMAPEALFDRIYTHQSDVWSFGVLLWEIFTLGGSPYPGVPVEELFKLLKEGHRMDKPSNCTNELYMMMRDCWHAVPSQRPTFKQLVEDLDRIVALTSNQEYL

Turning to `c1ccc(-n2cnc3cc(OCC4CO4)ccc32)cc1` (racemic) [Example 34, 5-(2,3-Epoxypropoxy)-1-phenylbenzimidazole], the IC50 in experiment [1] turned out to be 0.3 µM.
As for `Oc1cccc(-n2cnc3ccccc32)c1` [Example 2, 1-(3-Hydroxyphenyl)benzimidazole Hydrochloride], the IC50 is above 50 µM at insulin receptor (INSr), 50 µM in experiment [2], above 50 µM on c-Src and 3.8 µM in experiment [1].
For the compound `O=Cc1cccc(-n2cnc3ccccc32)c1` [Example 4, 1-(3-Formylphenyl)benzimidazole Hydrochloride], the IC50 was above 50 µM against insulin receptor (INSr), above 50 µM in experiment [2], above 50 µM against c-Src and 6.8 µM in experiment [1].
`COc1ccc(-n2cnc3ccccc32)cc1` [Example 5, 1-(4-Methoxyphenyl)benzimidazole Hydrochloride]: the IC50 on insulin receptor (INSr) is above 50 µM; against c-Src it was above 50 µM; in experiment [1], 12 µM.
As for `Oc1ccc(-n2cnc3ccccc32)cc1` [Example 6, 1-(4-Hydroxyphenyl)benzimidazole Hydrochloride], the IC50 was above 50 µM against insulin receptor (INSr), 5.8 µM in experiment [2], above 50 µM at c-Src and 1.8 µM in experiment [1].
For the compound `O=Cc1ccc(-n2cnc3ccccc32)cc1` [Example 9, 1-(4-Formylphenyl)benzimidazole], the IC50 was above 50 µM at c-Src and 13.5 µM in experiment [1].
Take `c1ccc2c(c1)ncn2-c1ccncc1` [Example 10, 1-(4-Pyridinyl)benzimidazole dihydrochloride]: the IC50 was above 50 µM against insulin receptor (INSr), 50 µM in experiment [2], above 50 µM against c-Src and 12.3 µM in experiment [1].
In the case of `Clc1ccc2c(c1)ncn2-c1ccccc1` [Example 15, 5-Chloro-1-phenylbenzimidazole], the IC50 in experiment [2] turned out to be 51 µM; in experiment [1] it was 4 µM.
The like results for `CC(=O)c1ccc2c(c1)ncn2-c1ccccc1` [Example 20, 5-Acetyl-1-phenylbenzimidazole] were, in that order, 14 µM and 0.9 µM.
Consider `C=CC(=O)Nc1ccc2c(c1)ncn2-c1ccccc1` [Example 25, 5-Acrylamido-1-phenylbenzimidazole], for which the IC50 was 37 µM in experiment [2], above 50 µM on c-Src and 5.3 µM in experiment [1].
As for `CCOc1ccc2c(c1)ncn2-c1ccccc1` [Example 28, 5-Ethoxy-1-phenylbenzimidazole Hydrochloride], the concentration for half-maximal inhibition (IC50) against insulin receptor (INSr) is above 50 µM; in experiment [2] it was 26 µM; in experiment [1] it was 0.2 µM.
`CC(C)Oc1ccc2c(c1)ncn2-c1ccccc1` [Example 30, 5-Isopropoxy-1-phenylbenzimidazole Hydrochloride]: the IC50 on insulin receptor (INSr) is above 50 µM; in experiment [1], below 50 µM.
Regarding `CCCCOc1ccc2c(c1)ncn2-c1ccccc1` [Example 31, 5-Butoxy-1-phenylbenzimidazole Hydrochloride], the IC50 on insulin receptor (INSr) was above 50 µM.
As for `OCC(O)COc1ccc2c(c1)ncn2-c1ccccc1` (centres unmarked) [Example 33, 5-(2,3-Dihydroxypropoxy)-1-phenylbenzimidazole Hydrochloride], the results for the IC50 in experiment [2] and in experiment [1] were 15 µM and 0.3 µM, respectively.
`Clc1ccc2ncn(-c3ccccc3)c2c1` [Example 42, 6-Chloro-1-phenylbenzimidazole] displayed a half-inhibitory concentration (IC50) in experiment [1] of 5.4 µM.
With `CCOc1ccc2ncn(-c3ccccc3)c2c1` [Example 44, 6-Ethoxy-1-phenylbenzimidazole], the half-maximal inhibitory concentration (IC50) in experiment [2] was above 50 µM; in experiment [1], 9.6 µM.
`COc1cc2ncn(-c3ccccc3)c2cc1OC` [Example 46, 5,6-Dimethoxy-1-phenylbenzimidazole Hydrochloride]: the IC50 is above 50 µM against insulin receptor (INSr), 25 µM in experiment [2] and 40 µM on c-Src.
Consider `Oc1cc2ncn(-c3ccccc3)c2cc1O` [Example 47, 5,6-Dihydroxy-1-phenylbenzimidazole Hydrochloride], for which the 50% inhibitory concentration (IC50) on insulin receptor (INSr) was above 50 µM; in experiment [2], 11 µM; in experiment [1] it was 2.3 µM.
Turning to `c1ccc(-n2cnc3cc4c(cc32)OCO4)cc1` [Example 48, 5,6-Methylenedioxy-1-phenylbenzimidazole Hydrochloride], the IC50 at insulin receptor (INSr) is above 50 µM; in experiment [2], 27 µM.
On insulin receptor (INSr), `COc1cc2ncn(-c3ccccc3)c2cc1C` [Example 49, 5-Methoxy-6-methyl-1-phenylbenzimidazole Hydrochloride] returned an IC50 above 50 µM.
At insulin receptor (INSr), `Cc1cc2c(cc1O)ncn2-c1ccccc1` [Example 50, 5-Hydroxy-6-methyl-1-phenylbenzimidazole Hydrochloride] registered an IC50 above 50 µM.
On to `O=C(O)c1cc2c(cc1O)ncn2-c1ccccc1` [Example 52, 5-Hydroxy-1-phenylbenzimidazole-6-carboxylic acid Hydrobromide], for which, in experiment [2], the IC50 was found to be 22 µM.
Regarding `COc1cc2ncn(-c3ccccc3)c2cc1C=O` [Example 54, 5-Methoxy-1-phenylbenzimidazole-6-carboxaldehyde Hydrochloride], the IC50 is above 50 µM against insulin receptor (INSr) and 1.1 µM in experiment [1].
With `COc1ccc2c(c1)ncn2-c1ccsc1` [Example 56, 5-Methoxy-1-(3-thienyl)benzimidazole Hydrochloride], the IC50 in experiment [2] is 6.5 µM; against c-Src, above 50 µM; in experiment [1] it was 0.7 µM.
For `OCCCCOc1ccc2c(c1)ncn2-c1ccccc1` [Example 57, 5-(4-Hydroxybutoxy)-1-phenylbenzimidazole Hydrochloride] the same measures were 25 µM, above 50 µM and 0.5 µM.
Regarding `CN(C)CCCCOc1ccc2c(c1)ncn2-c1ccccc1` [Example 58, 5-[4-(N,N-Dimethylamino)butoxy]-1-phenylbenzimidazole Dihydrochloride], the IC50 turned out to be 6 µM in experiment [2], 50 µM against c-Src and 0.2 µM in experiment [1].
As for `COc1ccc2c(ncn2-c2ccccc2)c1OC` [Example 60, 4,5-Dimethoxy-1-phenylbenzimidazole Hydrochloride], the IC50 against c-Src is above 50 µM.
With `Oc1ccc2c(ncn2-c2ccccc2)c1O` [Example 61, 4,5-Dihydroxy-1-phenylbenzimidazole Hydrochloride], the IC50 in experiment [2] came to 1.9 µM. This counts as single-digit micromolar.
Regarding `COc1c(O)ccc2c1ncn2-c1ccccc1` [Example 62, 5-Hydroxy-4-methoxy-1-phenylbenzimidazole Hydrochloride], the IC50 in experiment [2] and in experiment [1] was 50 µM in each case.
Turning to `COc1ccc2c(ncn2-c2ccccc2)c1O` [Example 63, 4-Hydroxy-5-methoxy-1-phenylbenzimidazole Hydrochloride], the IC50 was 40 µM against c-Src and below 50 µM in experiment [1].
